From patent US10660877B2 (BRISTOL-MYERS SQUIBB COMPANY, priority 2016, dated 2020)
Where two headings read alike, the source gives them in different places.

Tests used:
human TLR7 = human TLR7 (Homo sapiens (Human), UniProt Q9NYK1); assay: TLR7 inhibition reporter assay (HEK-Blue cells, SEAP reporter, gardiquimod stimulation); type: cell-based
human TLR8 = human TLR8 (Homo sapiens (Human), UniProt Q9NR97); assay: TLR8 inhibition reporter assay (HEK-Blue cells, SEAP reporter, R848 stimulation);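 further: compounds tested from 0.05 nM to 50 µM, 22 h at 37 °C, SEAP measured with HEK-Blue Detection, inhibition relative to agonist plus DMSO versus a known inhibitor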
Sequence of human TLR8 (Q9NR97 27-1041): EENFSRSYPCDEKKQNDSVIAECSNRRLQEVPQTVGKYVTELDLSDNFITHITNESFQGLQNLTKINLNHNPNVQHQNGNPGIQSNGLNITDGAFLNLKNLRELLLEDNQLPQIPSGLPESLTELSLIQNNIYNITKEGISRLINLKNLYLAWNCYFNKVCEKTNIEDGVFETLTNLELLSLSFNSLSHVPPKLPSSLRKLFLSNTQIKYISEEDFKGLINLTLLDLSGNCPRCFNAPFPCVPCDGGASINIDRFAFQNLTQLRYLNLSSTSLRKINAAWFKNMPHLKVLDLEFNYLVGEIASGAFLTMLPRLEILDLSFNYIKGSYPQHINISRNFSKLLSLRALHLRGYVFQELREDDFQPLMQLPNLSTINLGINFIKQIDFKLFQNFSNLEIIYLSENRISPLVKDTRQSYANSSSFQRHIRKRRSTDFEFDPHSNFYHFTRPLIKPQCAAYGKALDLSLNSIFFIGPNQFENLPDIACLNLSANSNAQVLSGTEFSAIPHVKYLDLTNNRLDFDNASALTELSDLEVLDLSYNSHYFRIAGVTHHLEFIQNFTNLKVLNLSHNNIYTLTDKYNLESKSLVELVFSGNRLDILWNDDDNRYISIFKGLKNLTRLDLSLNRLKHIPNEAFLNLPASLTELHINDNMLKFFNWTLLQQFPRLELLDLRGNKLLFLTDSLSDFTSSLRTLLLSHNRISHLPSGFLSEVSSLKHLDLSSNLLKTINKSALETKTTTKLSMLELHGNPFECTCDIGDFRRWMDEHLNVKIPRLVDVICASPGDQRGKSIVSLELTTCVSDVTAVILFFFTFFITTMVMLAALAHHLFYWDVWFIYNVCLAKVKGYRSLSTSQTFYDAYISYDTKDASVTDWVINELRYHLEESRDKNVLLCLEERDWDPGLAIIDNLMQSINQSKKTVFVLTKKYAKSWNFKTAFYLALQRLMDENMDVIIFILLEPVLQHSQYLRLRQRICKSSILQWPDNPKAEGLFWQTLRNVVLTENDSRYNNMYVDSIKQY

human TLR9 = human TLR9 (Homo sapiens (Human), UniProt Q9NR96); assay: TLR9 inhibition reporter assay (HEK-Blue cells, SEAP reporter, ODN2006 stimulation);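 further: compounds tested over 0.05 nM to 50 µM, 22 h incubation, inhibition taken as SEAP signal drop from agonist plus DMSO wells toward a known inhibitor control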
Sequence of human TLR9 (Q9NR96 26-1032): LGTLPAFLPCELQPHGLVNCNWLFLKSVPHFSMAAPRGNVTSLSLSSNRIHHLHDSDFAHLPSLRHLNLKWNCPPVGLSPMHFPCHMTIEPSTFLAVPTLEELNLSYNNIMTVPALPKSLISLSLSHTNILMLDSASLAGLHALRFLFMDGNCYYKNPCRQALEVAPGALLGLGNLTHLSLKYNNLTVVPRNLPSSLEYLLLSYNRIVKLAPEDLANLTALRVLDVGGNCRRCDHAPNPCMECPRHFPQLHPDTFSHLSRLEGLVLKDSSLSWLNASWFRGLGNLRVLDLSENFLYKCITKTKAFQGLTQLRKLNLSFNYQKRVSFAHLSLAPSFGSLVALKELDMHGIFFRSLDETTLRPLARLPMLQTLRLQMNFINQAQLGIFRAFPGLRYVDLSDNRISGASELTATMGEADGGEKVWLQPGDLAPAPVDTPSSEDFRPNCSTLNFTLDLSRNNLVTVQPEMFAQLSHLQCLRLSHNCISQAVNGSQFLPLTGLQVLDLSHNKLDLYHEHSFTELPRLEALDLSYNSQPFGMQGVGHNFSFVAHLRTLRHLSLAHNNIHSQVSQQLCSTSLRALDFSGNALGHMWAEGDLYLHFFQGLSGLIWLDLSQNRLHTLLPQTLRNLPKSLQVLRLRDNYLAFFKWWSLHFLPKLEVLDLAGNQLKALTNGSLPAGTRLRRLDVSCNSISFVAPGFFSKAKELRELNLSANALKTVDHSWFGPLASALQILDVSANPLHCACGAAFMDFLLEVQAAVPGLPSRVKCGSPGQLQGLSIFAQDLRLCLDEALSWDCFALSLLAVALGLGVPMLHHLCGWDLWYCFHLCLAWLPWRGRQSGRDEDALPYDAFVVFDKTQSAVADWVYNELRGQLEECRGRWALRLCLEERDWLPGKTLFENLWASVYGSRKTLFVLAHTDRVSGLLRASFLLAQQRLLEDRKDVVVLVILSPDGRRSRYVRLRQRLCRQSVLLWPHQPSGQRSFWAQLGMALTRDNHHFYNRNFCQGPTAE

[1] = HEK-Blue cells overexpressing human TLR7, gardiquimod 7.5 μM
[2] = read-out: TLR8 IC50, HEK-Blue cells overexpressing human TLR8, R848 15.9 μM
[3] = read-out: TLR9 IC50, HEK-Blue cells overexpressing human TLR9, ODN2006 5 nM
[4] = HEK-Blue cells, gardiquimod 7.5 μM
[5] = read-out: TLR8 IC50, HEK-Blue cells, R848 15.9 μM
[6] = read-out: TLR9 IC50, HEK-Blue cells, ODN2006 5 nM

Sequence of human TLR7 (Q9NYK1 27-1049): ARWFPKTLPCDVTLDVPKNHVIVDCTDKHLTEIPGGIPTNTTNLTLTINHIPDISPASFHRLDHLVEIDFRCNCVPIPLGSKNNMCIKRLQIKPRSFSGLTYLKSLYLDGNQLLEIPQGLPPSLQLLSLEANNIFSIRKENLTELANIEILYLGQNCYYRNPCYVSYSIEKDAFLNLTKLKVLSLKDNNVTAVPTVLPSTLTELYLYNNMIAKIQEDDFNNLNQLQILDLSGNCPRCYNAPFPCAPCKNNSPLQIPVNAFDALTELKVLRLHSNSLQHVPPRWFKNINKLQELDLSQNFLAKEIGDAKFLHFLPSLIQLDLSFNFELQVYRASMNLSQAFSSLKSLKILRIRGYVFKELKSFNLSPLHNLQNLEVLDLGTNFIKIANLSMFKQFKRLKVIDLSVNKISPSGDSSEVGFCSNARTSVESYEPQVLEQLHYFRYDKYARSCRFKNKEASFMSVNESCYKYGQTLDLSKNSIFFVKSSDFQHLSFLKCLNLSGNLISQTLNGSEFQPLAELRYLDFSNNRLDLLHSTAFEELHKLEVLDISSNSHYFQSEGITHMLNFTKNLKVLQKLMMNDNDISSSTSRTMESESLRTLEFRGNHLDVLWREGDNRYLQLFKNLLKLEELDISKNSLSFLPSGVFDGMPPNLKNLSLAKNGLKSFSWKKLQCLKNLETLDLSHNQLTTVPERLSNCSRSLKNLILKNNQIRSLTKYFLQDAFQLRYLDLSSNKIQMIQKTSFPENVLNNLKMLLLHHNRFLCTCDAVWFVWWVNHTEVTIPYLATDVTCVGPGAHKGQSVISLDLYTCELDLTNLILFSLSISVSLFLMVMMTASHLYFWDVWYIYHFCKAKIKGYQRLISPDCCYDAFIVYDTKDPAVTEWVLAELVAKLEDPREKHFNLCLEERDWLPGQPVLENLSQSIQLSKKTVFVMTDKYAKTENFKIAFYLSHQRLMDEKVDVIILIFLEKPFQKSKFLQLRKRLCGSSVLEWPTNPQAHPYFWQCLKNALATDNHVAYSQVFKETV

Compound | IC50 (human TLR7; [1]) [µM] | IC50 (human TLR8; [2]) [µM] | IC50 (human TLR9; [3]) [µM] | IC50 (human TLR7; [4]) [µM] | IC50 (human TLR8; [5]) [µM] | IC50 (human TLR9; [6]) [µM]
Cc1cnccc1-c1[nH]c2ccc(C3CCNCC3)cc2c1C(C)C [Example 23, 3-isopropyl-2-(3-methylpyridin-4-yl)-5-(piperidin-4-yl)-1H-indole] | 0.097 | 0.0323 | 8.79 | – | – | –
Cc1cc(-c2[nH]c3ccc(C4CCN(C(=O)CN(C)Cc5ncn(C)n5)CC4)cc3c2C(C)C)cc(C)n1 [Example 419, 1-(4-(2-(2,6-dimethylpyridin-4-yl)-3-isopropyl-1H-indol-5-yl)piperidin-1-yl)-2-(methyl((1-methyl-1H-1,2,4-triazol-3-yl)methyl)amino)ethan-1-one] | 0.0107 | 0.117 | 45.5 | – | – | –
CCOc1cc(-c2[nH]c3ccc(C4CCN(C5CCN(CC(C)C)CC5)CC4)cc3c2CC)ccn1 [Example 768, 2-(2-ethoxypyridin-4-yl)-3-ethyl-5-(1′-isobutyl-[1,4′-bipiperidin]-4-yl)-1H-indole] | 7.22 | 1.19 | 1.28 | – | – | –
Cc1cc(-c2[nH]c3ccc(C4CCN(C(=O)Cn5cncn5)CC4)cc3c2C(C)C)cc(C)n1 [Example 170, 1-(4-(2-(2,6-dimethylpyridin-4-yl)-3-isopropyl-1H-indol-5-yl)piperidin-1-yl)-2-(1H-1,2,4-triazol-1-yl)ethan-1-one] | 0.0121 | 0.206 | > 50 | – | – | –
COc1ncc(CN(C)CC(=O)N2CCC(c3ccc4[nH]c(-c5cc(C)nc(C)c5)c(C(C)C)c4c3)CC2)cn1 [Example 418, 1-(4-(2-(2,6-dimethylpyridin-4-yl)-3-isopropyl-1H-indol-5-yl)piperidin-1-yl)-2-(((2-methoxypyrimidin-5-yl)methyl)(methyl)amino)ethan-1-one] | 0.003 | 0.0306 | 2.05 | – | – | –
Cc1cc(-c2[nH]c3ccc(C4CCN(Cc5c[nH]nn5)CC4)cc3c2C(C)C)cc(C)n1 [Example 446, 5-(1-((1H-1,2,3-triazol-4-yl)methyl)piperidin-4-yl)-2-(2,6-dimethylpyridin-4-yl)-3-isopropyl-1H-indole] | 0.0013 | 0.0026 | 0.292 | – | – | –
Cc1cc(-c2[nH]c3ccc(C4CCN(CC(=O)O)CC4)cc3c2C(C)C)cc(C)n1 [Example 875, 2-(4-(2-(2,6-dimethylpyridin-4-yl)-3-isopropyl-1H-indol-5-yl)piperidin-1-yl)acetic acid] | – | – | – | 0.031 | 0.248 | 10.1
Cc1nccc(-c2[nH]c3ccc(C4CCN(C5COC5)CC4)cc3c2C(C)C)c1F [Example 730, 2-(3-fluoro-2-methylpyridin-4-yl)-3-isopropyl-5-(1-(oxetan-3-yl)piperidin-4-yl)-1H-indole] | 0.0092 | 0.0082 | 9.41 | – | – | –
Cc1cc(-c2[nH]c3ccc(C4CCN(CC5CCCCC5)CC4)cc3c2C(C)C)ccn1 [Example 868, 5-(1-(cyclohexylmethyl)piperidin-4-yl)-3-isopropyl-2-(2-methylpyridin-4-yl)-1H-indole] | – | – | – | 0.0535 | 0.0338 | 0.925
Cc1cc(-c2[nH]c3ccc(C4CCN(CC(=O)NC5(C)COC5)CC4)cc3c2C(C)C)cc(C)n1 [Example 233, 2-(4-(2-(2,6-dimethylpyridin-4-yl)-3-isopropyl-1H-indol-5-yl)piperidin-1-yl)-N-(3-methyloxetan-3-yl)acetamide] | 0.0063 | 0.0064 | 0.97 | – | – | –
Cc1cc(-c2[nH]c3ccc(C4CCN(CC(=O)N(C)CC(O)c5ccccc5)CC4)cc3c2C(C)C)cc(C)n1 (stereo not drawn) [Example 296, 2-(4-(2-(2,6-dimethylpyridin-4-yl)-3-isopropyl-1H-indol-5-yl)piperidin-1-yl)-N-(2-hydroxy-2-phenylethyl)-N-methylacetamide] | 0.0105 | 0.0462 | 0.553 | – | – | –
Cc1cc(-c2[nH]c3ccc(C4CCN(C)CC4)cc3c2C(C)C)cc(C)n1 [Example 429, 2-(2,6-dimethylpyridin-4-yl)-3-isopropyl-5-(1-methylpiperidin-4-yl)-1H-indole] | 0.0022 | 0.0055 | 0.484 | – | – | –
Cc1cc(-c2[nH]c3ccc(C4CCN(CC(=O)N5C[C@H](C(F)(F)F)C[C@@H]5CO)CC4)cc3c2C(C)C)cc(C)n1 [Example 301, 2-(4-(2-(2,6-dimethylpyridin-4-yl)-3-isopropyl-1H-indol-5-yl)piperidin-1-yl)-1-((2R,4R)-2-(hydroxymethyl)-4-(trifluoromethyl)pyrrolidin-1-yl)ethan-1-one] | 0.0196 | 0.118 | 1.58 | – | – | –
CCc1c(-c2ccnc(Cl)c2)[nH]c2ccc(C3CCN(C4CCN(CC(C)C)CC4)CC3)cc12 [Example 758, 2-(2-chloropyridin-4-yl)-3-ethyl-5-(1′-isobutyl-[1,4′-bipiperidin]-4-yl)-1H-indole] | 0.967 | 0.136 | 0.751 | – | – | –
Cc1cc(-c2[nH]c3ccc(C4CCN(CC#N)CC4)cc3c2C(C)C)cc(C)n1 [Example 312, 2-(4-(2-(2,6-dimethylpyridin-4-yl)-3-isopropyl-1H-indol-5-yl)piperidin-1-yl)acetonitrile] | 0.0054 | 0.014 | 1.39 | – | – | –
Cc1cc(-c2[nH]c3ccc(C4CCN(CC(C)(C)C)CC4)cc3c2C(C)C)cc(C)n1 [Example 470, 2-(2,6-dimethylpyridin-4-yl)-3-isopropyl-5-(1-neopentylpiperidin-4-yl)-1H-indole] | 0.0059 | 0.0238 | 0.532 | – | – | –
Cc1cc(-c2[nH]c3ccc(C4CCN(Cc5c[nH]cn5)CC4)cc3c2CC(F)F)cc(C)n1 [Example 537, 5-(1-((1H-imidazol-4-yl)methyl)piperidin-4-yl)-3-(2,2-difluoroethyl)-2-(2,6-dimethylpyridin-4-yl)-1H-indole] | 0.0362 | 0.0533 | 0.032 | – | – | –
CCc1c(-c2ccnc(C)c2)[nH]c2ccc(C3CCN(C(=O)c4ccnc(F)c4)CC3)cc12 [Example 592, (4-(3-ethyl-2-(2-methylpyridin-4-yl)-1H-indol-5-yl)piperidin-1-yl)(2-fluoropyridin-4-yl)methanone] | 0.276 | 0.235 | 17.1 | – | – | –
Cc1cc(-c2[nH]c3ccc(C4CCN(CC(=O)N[C@H]5CC[C@H](O)CC5)CC4)cc3c2C(C)C)cc(C)n1 [Example 211, 2-(4-(2-(2,6-dimethylpyridin-4-yl)-3-isopropyl-1H-indol-5-yl)piperidin-1-yl)-N-((1r,4r)-4-hydroxycyclohexyl)acetamide] | 0.0011 | 0.0042 | 0.245 | – | – | –
CNC(=O)CN1CCC(c2ccc3[nH]c(-c4ccnc(C)c4)c(C(C)C)c3c2)CC1 [Example 513] | 0.0135 | 0.0098 | 2.26 | – | – | –
CCc1c(-c2ccnc(C)c2)[nH]c2ccc(C3CCN(C(=O)NC4CCN(C(=O)C(F)(F)F)CC4)CC3)cc12 [Example 846, 4-(3-ethyl-2-(2-methylpyridin-4-yl)-1H-indol-5-yl)-N-(1-(2,2,2-trifluoroacetyl)piperidin-4-yl)piperidine-1-carboxamide] | – | – | – | 1.59 | 1.54 | > 50
Cc1nccc(-c2[nH]c3ccc(C4CCN(C5CCOCC5)CC4)cc3c2C(C)C)c1C [Example 716, 2-(2,3-dimethylpyridin-4-yl)-3-isopropyl-5-(1-(tetrahydro-2H-pyran-4-yl)piperidin-4-yl)-1H-indole] | 0.144 | 0.0733 | 1.91 | – | – | –
CCOCCNCC(=O)N1CCC(c2ccc3[nH]c(-c4cc(C)nc(C)c4)c(C(C)C)c3c2)CC1 [Example 349, 1-(4-(2-(2,6-dimethylpyridin-4-yl)-3-isopropyl-1H-indol-5-yl)piperidin-1-yl)-2-((2-ethoxyethyl)amino)ethan-1-one] | 0.0052 | 0.0219 | 1.36 | – | – | –
Cc1cc(-c2[nH]c3ccc(C4CCN(C5CCCOC5)CC4)cc3c2C(C)C)ccn1 (stereo not drawn) [Example 718, 3-isopropyl-2-(2-methylpyridin-4-yl)-5-(1-(tetrahydro-2H-pyran-3-yl)piperidin-4-yl)-1H-indole] | 0.0228 | 0.0061 | 0.855 | – | – | –
CC(C)c1c(-c2ccnc(C(=O)Nc3nccs3)c2)[nH]c2ccc(C3CCNCC3)cc12 [Example 477, 4-(3-isopropyl-5-(piperidin-4-yl)-1H-indol-2-yl)-N-(thiazol-2-yl) picolinamide] | 3.08 | 1.11 | 2.19 | – | – | –
CCc1c(-c2ccnc(-c3nnc[nH]3)c2)[nH]c2ccc(C3CCNCC3)cc12 [Example 66, 2-(2-(4H-1,2,4-triazol-3-yl)pyridin-4-yl)-3-ethyl-5-(piperidin-4-yl)-1H-indole] | 1.23 | 0.159 | 0.554 | – | – | –
Cc1cc(-c2[nH]c3ccc(C4CCN(C(=O)CC5C(=O)NC(=O)N5C)CC4)cc3c2C(C)C)cc(C)n1 (stereo not drawn) [Example 130, 5-(2-(4-(2-(2,6-dimethylpyridin-4-yl)-3-isopropyl-1H-indol-5-yl)piperidin-1-yl)-2-oxoethyl)-1-methylimidazolidine-2,4-dione] | 0.0297 | 0.0735 | 11.8 | – | – | –
Cc1cc(-c2[nH]c3ccc(C4CCN(CC(=O)N5CCCC(O)C5)CC4)cc3c2C(C)C)cc(C)n1 (stereo not drawn) [Example 277, 2-(4-(2-(2,6-dimethylpyridin-4-yl)-3-isopropyl-1H-indol-5-yl)piperidin-1-yl)-1-(3-hydroxypiperidin-1-yl)ethan-1-one] | 0.002 | 0.0066 | 0.201 | – | – | –
